The values below are quoted from earlier work in patent publication US20240424165A1, “NEW COATING OF IMPLANTS” (Universität Münster, priority 2021, published 2024).

≈ marks a conversion by molar mass, not a printed value.

Usually MIC stands for the least concentration at which growth counts as inhibited.

This series relates to S. aureus.

With `CO[C@H]1/C=C/O[C@@]2(C)Oc3c(C)c(O)c4c(O)c(c(/C=N/N5CCN(C)CC5)c(O)c4c3C2=O)NC(=O)/C(C)=C\C=C\[C@H](C)[C@H](O)[C@@H](C)[C@@H](O)[C@@H](C)[C@H](OC(C)=O)[C@@H]1C` [rifampin], the MIC is 0.06 µg/mL (≈ 0.0729 µM).
